Assays:
[1] = when hydrocortisone is set to 1; cited from earlier work
[2] = system: iNCC (iPS cell-derived neural crest cell); test: Differentiation induction from iNCC into iMSC, surface antigen analysis using FACS; assay type: cell-based, human
Description: The obtained iNCCs (iPSC-derived NCCs) were seeded at a density of 5.0×10^3 cells/well into a 6-well plate coated with vitronectin-N (Thermo Fisher Scientific) at a density of 1.5 μg/cm^2 and cultured under 37° C., 5% CO2 conditions for […] using the following differentiation medium (T3 medium) to induce iMSCs (iPSC-derived MSCs).
T3 medium: StemFit (registered trademark) For Mesenchymal Stem Cells (Ajinomoto Co., Inc.), 90 nM Dexamethasone (Sigma-Aldrich) […]
iMSC was induced according to Example 1, except that 100 nM Dexamethasone, 100 nM betamethasone, 100 nM predonisolone, 666 nM predonisolone were used.
Regarding the induced iMSC, surface antigen analysis of 4 types of MSC positive markers (CD90, CD44, CD73, CD105), 1 type of NCC positive marker (MSC micro-positive marker) (CD271), and two types of MSC negative markers (CD45 and CD34) was performed using FACS.

[3] = Titer of corticosteroid as glucocorticoid; settings: titer as glucocorticoid taken for the converted concentrations of the Examples
[4] = system: LX-2 Human Hepatic Stellate Cell Line; test: Antifibrotic action of secretome: RT-PCR of fibrosis marker genes COL1A1 and ACTA2 in LX-2 cells; assay type: cell-based; settings: effect of TGF-β1 stimulation itself (10 ng/mL)
Description: LX-2 Human Hepatic Stellate Cell Line (EDM Millipore, hereinafter LX-2 cells) was cultured in a DMEM high Glucose (Life Technologies) medium supplemented with 10% FBS (Gibco), 1% penicillin-streptomycin (Nacalai), and 2 mM Glutamine (Gibco). On the fourth passage, 4×10^4 cells were seeded into each well of a 12-well plate. After 2 days of culture, the medium was replaced with a medium in which concentrated secretome obtained from iMSC was added at a concentration of 1× to a medium supplemented with 10 ng/mL TGF-β1 (Peprotech), and the culture was continued. On the second day after replacing the medium, cells were detached with Accutase (Thermo Fisher), and after collection, RNA was extracted and purified using Maxwell (registered trademark) 16 LEV simplyRNA Purification Kits (Promega), and reverse transcription was performed using PrimeScript™ RT Master Mix (Takara). RT-PCR was performed on the synthesized cDNA using the primers of TaqMan (registered trademark) Gene Expression Assays shown in Table 5.

iNCC = test: Cell proliferation curve during differentiation induction; assay type: cell-based, human; settings: group added with 50 μM; FIG. 2
TSG-6 (TNFAIP6) = test: Gene expression of TSG-6 (TNFAIP6) after IFNγ stimulation, Real-Time PCR; assay type: cell-based, human; settings: iMSC induced by adding 50 nM to 10 μM Dexamethasone, 18 days; 50 ng/mL IFNγ for 48 hr; FIG. 3
Description: iNCCs were seeded at a density of 5.0×10^3 cells/well into a 6-well plate coated with vitronectin-N at a density of 1.5 μg/cm^2, and cultured under 37° C., 5% CO2 conditions for 16 days using T3 medium to induce iMSCs.
After 16 days from the start of induction, 50 ng/mL IFNγ (R&D Systems) was added to T3 medium to stimulate for 48 hr. After stimulation, RNA was purified according to the protocol of PureLink (trademark) RNA Mini Kit (Thermo Fisher Scientific) and, after reverse transcription, gene expression of TSG-6 (TNFAIP6), a therapeutic marker for inflammatory diseases, was analyzed using Real-Time PCR. As comparison targets, iNCC-derived iMSC induced to differentiate in αMEM medium containing 10% FBS, and two lots of living bone marrow-derived MSC (BMMSC) (Lonza or RoosterBio) cultured in T3 medium for 12 to 16 days were used (Table 2).
iNCCs were seeded at a density of 3.0×10^4 cells/well into a 6-well plate coated with vitronectin-N at a density of 1.5 μg/cm^2, and cultured under 37° C., 5% CO2 conditions using StemFit (registered trademark) For Mesenchymal Stem Cells supplemented with 50 nM, 100 nM, 1 μM, 10 μM, 50 μM Dexamethasone to induce iMSCs. […] After stimulation, RNA was purified and, after reverse transcription, gene expression of TNFAIP6 was analyzed using Real-Time PCR.

[5] = StemFit For MSC + 100 nM corticosteroid
[6] = StemFit For MSC + 666 nM corticosteroid

Molecule | titer of corticosteroid as glucocorticoid [1] | CD34 (MSC negative marker) FACS [2, 5] [%] | CD44 (MSC positive marker) FACS [2, 5] [%] | CD45 (MSC negative marker) FACS [2, 5] [%] | CD73 (MSC positive marker) FACS [2, 5] [%] | CD90 (MSC positive marker) FACS [2, 5] [%] | CD105 (MSC positive marker) FACS [2, 5] [%] | CD271 (NCC positive, MSC micro-positive marker) FACS [2, 5] [%] | also measured
C[C@]12C=CC(=O)C=C1CC[C@@H]1[C@@H]2[C@@H](O)C[C@@]2(C)[C@H]1CC[C@]2(O)C(=O)CO [Prednisolone] | 4 | 9.22 | 99.60 | 0.56 | 96.38 | 98.99 | 93.32 | 56.94 | effect in promoting differentiation ([2]; 666 nM, titer as glycocorticoid aligned): effective in promoting differentiation; CD34 (MSC negative marker) FACS [2, 6]: 9.86%; CD44 (MSC positive marker) FACS [2, 6]: 99.70%; CD45 (MSC negative marker) FACS [2, 6]: 0.88%; CD73 (MSC positive marker) FACS [2, 6]: 97.38%; CD90 (MSC positive marker) FACS [2, 6]: 99.18%; CD105 (MSC positive marker) FACS [2, 6]: 95.28%; CD271 (NCC positive, MSC micro-positive marker) FACS [2, 6]: 41.02%; effect in promoting differentiation ([2]; added at 100 nM): limited effect; titer used to convert concentrations [3]: 4
C[C@]12C=CC(=O)C=C1CC[C@H]1[C@@H]3C[C@@H](O)[C@](O)(C(=O)CO)[C@@]3(C)C[C@H](O)[C@@]12F [triamcinolone] | 5 |  |  |  |  |  |  |  | 
C[C@@H]1C[C@H]2[C@@H]3C[C@H](F)C4=CC(=O)C=C[C@]4(C)[C@H]3[C@@H](O)C[C@]2(C)[C@@]1(O)C(=O)CO [paramethasone] | 10 |  |  |  |  |  |  |  | 
TGF-β1: TGF-β1 (Peprotech), 10 ng/mL stimulus of LX-2 cells |  |  |  |  |  |  |  |  | ACTA2 expression [4]: markedly increased; COL1A1 expression [4]: markedly increased
C[C@]12CCC(=O)C=C1CC[C@@H]1[C@@H]2C(=O)C[C@@]2(C)[C@H]1CC[C@]2(O)C(=O)CO [cortisone] | 0.8 |  |  |  |  |  |  |  | 
C[C@@H]1C[C@H]2[C@@H]3CCC4=CC(=O)C=C[C@]4(C)[C@@]3(F)[C@@H](O)C[C@]2(C)[C@@]1(O)C(=O)CO [Dexamethasone, Pregna-1,4-diene-3,20-dione,9-fluoro-11,17,21-trihydroxy-16-methyl-, (11β,16α)-] |  | 10.52 | 99.26 | 0.64 | 97.82 | 99.22 | 96.36 | 23.42 | proliferation of cells during differentiation induction (iNCC): stopped after day 13; gene expression of TSG-6 by IFNγ stimulation (TSG-6 (TNFAIP6)): significantly increased; titer used to convert concentrations [3]: 26.66
C[C@H]1C[C@H]2[C@@H]3CCC4=CC(=O)C=C[C@]4(C)[C@@]3(F)[C@@H](O)C[C@]2(C)[C@@]1(O)C(=O)CO [Betamethasone] |  | 8.12 | 99.60 | 0.88 | 97.86 | 98.96 | 95.34 | 34.14 | 

Source: patent US20240182862A1, “METHOD FOR PRODUCING MESENCHYMAL STEM CELLS” (AJINOMOTO CO., INC., priority 2021, published 2024)
